This is an account of results in patent publication US20020107401A1, “Production of phosphonopyrazoles” (MONSNTO TECHNOLOGY LLC., priority 2000, published 2002).

The test relates to wheat variety 'OSLO'. Nature of the test: Chemical hybridizing agent assay for male sterility (male gametocidal activity), foliar spray, seed counts. The format is in vivo. How it is done:
The compounds of structure 3 and analogs are applied at a rate of 50-1000 μg/plant to cause pollen sterility. The male gametocidal activity is determined on the wheat variety ‘OSLO’, a double-dwarf hard red spring wheat. The wheat seed is planted to a depth of 0.5 to 1 inch (1-2.5 cm) in a 6-inch long (15 cm) conetainer (a cone shaped container, one seed per conetainer). The conetainers are filled with Metromix 200 potting soil supplemented with a slow release fertilizer, Osmocote and Sierra combined at 93 g/cu ft soil for a NPK of 31-20-24. Micromax with micronutrients is added at 17 g/cu ft rate. Fertilizer supplier is Hummerts, Earth City, Mo. 63045. The RLC-4 conetainers are 1×6 inch (2.5×15 cm) with a capacity of 4 cu in. (Stuewe & Sons, Inc., Corvallis, Oreg., 97333-9461). These are loaded into racks of 100 that occupy a 1.0 ft by 1.0 ft area. After seeding, the racks are placed in growth chambers with 14/10 hour day/night cycle at 18° C. These chambers are equipped with metal halide lamps that deliver approximately 300 μE/m^2/sec. Humidity is maintained at 50%, and plants are watered as needed. Approximately six weeks after seeding, wheat plants are selected for chemical application at or just prior to flag-leaf emergence from the boot (Feekes Scale 7.5-8.0) (Large, 1954. Plant Pathology 3:128-129). Plants are placed in a rack containing cardboard dividers to prevent each from being cross contaminated by an adjacent spray. The following procedures are used to evaluate the activity of the compounds of the invention for inducing male sterility in cereals. The plant heights vary and as uniformity is required for chemical application, the top 0-10 cm are removed by excision, such that the plant height is flush with the top of the divider. Prior to application, a 50 mL solution of DMSO (dimethylsulfoxide) containing the chemical hybridizing agent is diluted with 150 mL of water containing 1% SILWET L-77 surfactant (Witco Corp., Greenwich, Conn. 06831-2559) plus 2% humectant (glycerin, supplied by VWR Scientific Products Co.). The formulated chemicals are applied foliarly as an atomized spray onto the plants. After application, the plants are moved into growth chambers and allowed to grow until the heads emerge from the boot. Prior to anther extrusion (approximately 10 to 14 days after treatment), the plants are placed back into dividers in order to isolate the seed heads and to prevent cross-pollination. The plants are moved to a greenhouse, which has similar environmental conditions as the growth chambers. Approximately one week later (3 weeks after treatment (WAT) and at anther extrusion), open head morphology ratings are initiated. Plants are rated four times over a period of eight days (Table 2). The chemical hybridizing agent Genesis® (a registered Trade Mark of the Monsanto Co) is used as the positive control and for comparative purposes as to the rate of application and the efficacy as determined by percent sterility. The negative control is treatment of the wheat plants with the compounds making up the formulation of surfactant and humectant without the chemical compositions being assayed as chemical hybridizing agents. The data in Table 2 is expressed as % Sterility=(1-(Ave. normalized seed counts of sample/Ave. normalized seed counts of controls))*100 with the treatments comprising foliar application and rate titration at Feekes stage 8, across five replicates. Approximately two weeks after open head ratings are completed (six WAT), seed counts are collected.

The mark [1] stands for this setting: Table 2, rate 50 μg/plant, foliar, Feekes 6.
[2] abbreviates: Table 2, rate 50 μg/plant, foliar, Feekes 8.
[3] abbreviates: Table 2, rate 125 μg/plant, foliar, Feekes 6.
The mark [4] stands for this setting: Table 2, rate 125 μg/plant, foliar, Feekes 8.
Setting [5] is: Table 2, rate 250 μg/plant, foliar, Feekes 6.
Setting [6] is: Table 2, rate 250 μg/plant, foliar, Feekes 8.
Where [7] appears, read: Table 2, rate 500 μg/plant, foliar, Feekes 6.
[8] abbreviates: Table 2, rate 500 μg/plant, foliar, Feekes 8.
Where [9] appears, read: Table 2, rate 1000 μg/plant, foliar, Feekes 8.

In the case of `COP(=O)(OC)c1cnn(-c2ccc(Cl)cc2)c1O` [Compound 3a, Dimethyl [1-(4-chlorophenyl)-5-hydroxy-1H-pyrazol-4-yl]phosphonate], the “Sterility (%)” value runs as follows: under setting [1], 27%; under setting [2], 39%; under setting [3], 0%; under setting [4], 34%; under setting [5], 0%; under setting [6], 79%. Also, the “Sterility (%)” value under setting [7] came to 49% and the “Sterility (%)” value under setting [8] is reported as 92%.
On to `COP(=O)(OC)c1cnn(-c2ccc(F)cc2)c1O` [Compound 3b, Dimethyl [1-(4-fluorophenyl)-5-hydroxy-1H-pyrazol-4-yl]phosphonate], for which the “Sterility (%)” value is 23% under setting [2]; 30% under setting [4]; 90% under setting [6]; 91% under setting [8]; 98% under setting [9].
With `COP(=O)(OC)c1cnn(-c2ccccc2Cl)c1O` [Compound 3c, Dimethyl [1-(2-chlorophenyl)-5-hydroxy-1H-pyrazol-4-yl]phosphonate], the “Sterility (%)” value is, setting by setting: under setting [2], 25%; under setting [4], 29%; under setting [6], 18%; under setting [8], 53%; under setting [9], 36%.
`COP(=O)(OC)c1cnn(-c2ccc(Br)cc2)c1O` [Compound 3d, Dimethyl [1-(4-bromophenyl)-5-hydroxy-1H-pyrazol-4-yl]phosphonate]: the “Sterility (%)” value under setting [2] was determined as 0%; the “Sterility (%)” value under setting [4] stood at 0%; the “Sterility (%)” value under setting [6] is recorded as 17%; the “Sterility (%)” value under setting [8] came out at 15%; the “Sterility (%)” value under setting [9] was found to be 54%.
Regarding `COP(=O)(OC)c1cnn(C2CCCCC2)c1O` [Compound 3e, Dimethyl [1-cyclohexyl-5-hydroxy-1H-pyrazol-4-yl]phosphonate], the “Sterility (%)” value was 15% under setting [2]; 3% under setting [4]; 17% under setting [6]; 26% under setting [8]; 44% under setting [9].
As to `O=P(O)(O)C1=CNN(c2ccc(Cl)cc2)C1O` (centres unmarked) [Compound 3j, 2-(4-Chlorophenyl)-3-hydroxy-1H-pyrazol-4-yl phosphonic acid], the “Sterility (%)” value is, setting by setting: under setting [1], 4%; under setting [2], 31%; under setting [3], 7%; under setting [4], 13%; under setting [5], 0%; under setting [6], 0%. Further, the “Sterility (%)” value was 35% under setting [7] and 12% under setting [8].
`COP(=O)([O-])c1cnn(-c2cc(C)cc(C)c2)c1O.[K+]` [Compound 3l, methyl potassium[2-(3,5-dimethylphenyl)-3-hydroxy-1H-pyrazol-4-yl]phosphonate]: the “Sterility (%)” value was 0% under setting [1]; 12% under setting [2]; 17% under setting [3]; 28% under setting [4]; 39% under setting [5]; 24% under setting [6]. Moreover, the “Sterility (%)” value under setting [7] is reported as 54% and the “Sterility (%)” value under setting [8] stood at 39%.
Turning to `Cc1cc(C)cc(-n2ncc(P(=O)([O-])O)c2O)c1.[K+]` [Compound 3n, hydrogen potassium[2-(3,5-dimethylphenyl)-3-hydroxy-1H-pyrazol-4-yl]phosphonate], the “Sterility (%)” value runs as follows: under setting [1], 7%; under setting [2], 15%; under setting [3], 7%; under setting [4], 11%; under setting [5], 10%; under setting [6], 4%. Moreover, the “Sterility (%)” value is 31% under setting [7] and 20% under setting [8].
As for `COP(=O)(OC)c1cnn(-c2ccc(Cl)cc2)c1OCc1ccc(Cl)cc1` [Compound 4a, Dimethyl{1-(4-Chlorophenyl)-5-[(4-chlorobenzyl)oxy]-1H-pyrazol-4-yl}phosphonate], the “Sterility (%)” value was determined as 0% under setting [1]; 48% under setting [2]; 0% under setting [3]; 80% under setting [4]; 9% under setting [5]; 93% under setting [6]. Besides, the “Sterility (%)” value is, setting by setting: under setting [7], 34%; under setting [8], 93%.
As for `COP(=O)(OC)c1cnn(-c2ccc(Cl)cc2)c1OCc1ccccc1[N+](=O)[O-]` [Compound 4b, Dimethyl{1-(4-chlorophenyl)-5-[(2-nitrobenzyl)oxy]-1H-pyrazol-4-yl}phosphonate], the “Sterility (%)” value is reported as 0% under setting [1]; 16% under setting [2]; 0% under setting [3]; 0% under setting [4]; 0% under setting [5]; 57% under setting [6]. Further, the “Sterility (%)” value by setting is: under setting [7], 0%; under setting [8], 94%.
On to `CCn1cc(P(=O)(OC)OC)c(=O)n1-c1ccc(Cl)cc1` [Compound 5a, Dimethyl [2-(4-chlorophenyl)-2,3-dihydro-1-ethyl-3-oxo-pyrazol-4-yl]phosphonate], for which the “Sterility (%)” value is listed as 11% (Table 4, rate 50 μg/plant); 26% (Table 4, rate 125 μg/plant); 66% (Table 4, rate 250 μg/plant); 29% (Table 4, rate 500 μg/plant); 10% (Table 4, rate 1000 μg/plant).
The corresponding values for `COP(=O)(OC)c1cn(C2CCCCC2)n(-c2ccc(Cl)cc2)c1=O` [Compound 5b, Dimethyl[2-(4-chlorophenyl)-1-cyclohexyl-2,3-dihydro-3-oxo-pyrazol-4-yl]phosphonate] are 0%, 14%, 20%, 23% and 62%.
For `CCn1cc(P(=O)(OC)OC)c(=O)n1-c1cc(C)cc(C)c1` [Compound 5c, Dimethyl[2-(3,5-dimethylphenyl)-2,3-dihydro-1-ethyl-3-oxo-pyrazol-4-yl]phosphonate], the “Sterility (%)” value (Table 4, rate 50 μg/plant) was determined as 8%; the “Sterility (%)” value (Table 4, rate 125 μg/plant) is 1%; the “Sterility (%)” value (Table 4, rate 250 μg/plant) came to 16%; the “Sterility (%)” value (Table 4, rate 500 μg/plant) was determined as 48%; the “Sterility (%)” value (Table 4, rate 1000 μg/plant) was determined as 31%.
As for `CCCCn1cc(P(=O)(OC)OC)c(=O)n1-c1cc(C)cc(C)c1` [Compound 5d, Dimethyl[1-butyl-2-(3,5-dimethylphenyl)-2,3-dihydro-3-oxo-pyrazol-4-yl]phosphonate], the “Sterility (%)” value was 29% (Table 4, rate 50 μg/plant); 0% (Table 4, rate 125 μg/plant); 28% (Table 4, rate 250 μg/plant); 24% (Table 4, rate 500 μg/plant); 41% (Table 4, rate 1000 μg/plant).
`COP(=O)(OC)c1cn(-c2ccc(Br)cc2)nc1O` [Compound 8a, Dimethyl [1-(4-bromophenyl)-3-hydroxy-1H-pyrazol-4-yl]phosphonate]: the “Sterility (%)” value is listed as 12% (Table 3, rate 50 μg/plant); 0% (Table 3, rate 125 μg/plant); 44% (Table 3, rate 250 μg/plant); 25% (Table 3, rate 500 μg/plant); 15% (Table 3, rate 1000 μg/plant).
Turning to `COP(=O)(OC)c1c(-c2ccccc2)nn(-c2ccc(Cl)cc2)c1O` [Compound 10a, Dimethyl [1-(4-chlorophenyl)-5-hydroxy-3-phenyl-1H-pyrazol-4-yl]phosphonate], the “Sterility (%)” value turned out to be 1% under setting [2]; 0% under setting [4]; 27% under setting [6]; 18% under setting [8]; 45% under setting [9].
